{"source": "paper PMC9127750", "about": "“Structure-based design of CDC42 effector interaction inhibitors for the treatment of cancer” (Cell reports, 2022)", "tested_on": "WM3248 melanoma cells, 486 antibodies", "test": "Reverse phase protein arrays (RPPA)", "assay_type": "cell-based, Human", "settings": "5 uM", "from_the_text": "Pellets were snap frozen in liquid nitrogen and shipped to MD Anderson Cancer Center core RPPA facility for RPPA analysis (Table S5). Three biological replicates for each sample were generated.\nNomenclatures on the RPPA heatmaps: name_of_antibody.species_of_antibody.status_of_antibody. V - antibody validated; C - validation of antibody in progress; Q - antibody nonspecific; E – under evaluation; antibodies raised in M - mouse, G - goat, R - rabbit, or T - rat.", "note": "“And” between values parts separate entries of the source, which are not always exact repeats. Identical values can stand only once.", "data": [{"smiles": "CN(C)c1cccc(Nc2cc(-c3ccccc3)nc(C3CCNCC3)n2)c1", "note": "[ARN22089, N1,N1-dimethyl-N3-(6-phenyl-2-(piperidin-4-yl)pyrimidin-4-yl)benzene-1,3-diamine]", "values": [{"measurement": "RPPA level IGF1R_pY1135_Y1136.R.V", "setting": "single replicates", "result": "0.923 and 1.035 and 1.147"}, {"measurement": "RPPA level IGFBP2.R.V", "setting": "single replicates", "result": "0.536 and 0.864 and 1.227"}, {"measurement": "RPPA level IGFBP3.M.V", "setting": "single replicates", "result": "0.749 and 0.955 and 1.168"}, {"measurement": "RPPA level IGFRb.R.C", "setting": "single replicates", "result": "0.930 and 1.171"}, {"measurement": "RPPA level IL.6.R.C", "setting": "single replicates", "result": "0.941 and 1.064 and 1.146"}, {"measurement": "RPPA level IMP3.R.C", "setting": "single replicates", "result": "0.986 and 0.965"}, {"measurement": "RPPA level INPP4b.R.C", "setting": "single replicates", "result": "1.116 and 0.899 and 0.832"}, {"measurement": "RPPA level IR.b.R.C", "setting": "single replicates", "result": "1.320 and 1.103"}, {"measurement": "RPPA level IRF.1.R.V", "setting": "single replicates", "result": "0.717 and 1.139 and 1.144"}, {"measurement": "RPPA level IRF.3.R.V", "setting": "single replicates", "result": "0.919 and 1.034"}, {"measurement": "RPPA level IRS1.R.V", "setting": "single replicates", "result": 0.981}, {"measurement": "RPPA level IRS2.R.C", "setting": "single replicates", "result": "0.999 and 0.927 and 0.986"}, {"measurement": "RPPA level JAB1.M.C", "setting": "single replicates", "result": "1.009 and 0.971"}, {"measurement": "RPPA level JNK2.R.V", "setting": "single replicates", "result": "0.702 and 1.165 and 0.800"}, {"measurement": "RPPA level JNK_pT183_Y185.R.C", "setting": "single replicates", "result": "0.946 and 1.035 and 1.097"}, {"measurement": "RPPA level Jagged1.R.V", "setting": "single replicates", "result": "0.958 and 1.186 and 0.974"}, {"measurement": "RPPA level Jak2.R.V", "setting": "single replicates", "result": "0.877 and 1.121"}, {"measurement": "RPPA level KAP1.R.V", "setting": "single replicates", "result": "1.023 and 0.961 and 0.759"}, {"measurement": "RPPA level KEAP1.R.V", "setting": "single replicates", "result": "1.060 and 0.798 and 0.885"}, {"measurement": "RPPA level LAD1.R.V", "setting": "single replicates", "result": "0.906 and 1.221 and 0.985"}, {"measurement": "RPPA level LC3A.B.R.C", "setting": "single replicates", "result": "0.962 and 0.690"}, {"measurement": "RPPA level LCN2.R.V", "setting": "single replicates", "result": "2.079 and 0.667 and 0.750"}, {"measurement": "RPPA level LDHA.R.C", "setting": "single replicates", "result": "1.269 and 0.924 and 0.174"}, {"measurement": "RPPA level LRP6_pS1490.R.V", "setting": "single replicates", "result": "0.923 and 1.082 and 1.190"}, {"measurement": "RPPA level Lasu1.R.V", "setting": "single replicates", "result": "0.830 and 0.833"}, {"measurement": "RPPA level Lck.R.V", "setting": "single replicates", "result": "0.914 and 1.025 and 0.835"}, {"measurement": "RPPA level Lyn.R.V", "setting": "single replicates", "result": "0.857 and 0.712"}, {"measurement": "RPPA level MACC1.R.V", "setting": "single replicates", "result": "0.983 and 0.952 and 1.126"}, {"measurement": "RPPA level MAPK_pT202_Y204.R.C", "setting": "single replicates", "result": "0.962 and 0.989 and 1.287"}, {"measurement": "RPPA level MCT4.R.V", "setting": "single replicates", "result": "0.631 and 1.046 and 1.198"}, {"measurement": "RPPA level MDM2_pS166.R.V", "setting": "single replicates", "result": "0.981 and 1.059 and 0.658"}, {"measurement": "RPPA level MEK1.R.V", "setting": "single replicates", "result": "0.979 and 2.685"}, {"measurement": "RPPA level MEK1_pS217_S221.R.V", "setting": "single replicates", "result": "0.968 and 1.488 and 0.918"}, {"measurement": "RPPA level MEK2.R.V", "setting": "single replicates", "result": "1.028 and 1.188 and 0.905"}, {"measurement": "RPPA level MERIT40.R.C", "setting": "single replicates", "result": "0.976 and 0.913"}, {"measurement": "RPPA level MERIT40_pS29.R.V", "setting": "single replicates", "result": "0.986 and 0.944"}, {"measurement": "RPPA level METTL3.R.V", "setting": "single replicates", "result": "1.157 and 0.890 and 0.714"}, {"measurement": "RPPA level MIF.R.C", "setting": "single replicates", "result": "0.954 and 1.000"}, {"measurement": "RPPA level MIG6.R.V", "setting": "single replicates", "result": "1.004 and 0.977"}, {"measurement": "RPPA level MITF.R.V", "setting": "single replicates", "result": "1.035 and 0.897"}, {"measurement": "RPPA level MLH1.M.V", "setting": "single replicates", "result": "0.967 and 0.818"}, {"measurement": "RPPA level MLKL.R.V", "setting": "single replicates", "result": 0.948}, {"measurement": "RPPA level MMP2.R.V", "setting": "single replicates", "result": "1.053 and 0.940 and 0.993"}, {"measurement": "RPPA level MMP14.R.V", "setting": "single replicates", "result": "0.806 and 0.852 and 1.235"}, {"measurement": "RPPA level MR1.M.C", "setting": "single replicates", "result": "0.985 and 1.126 and 0.989"}, {"measurement": "RPPA level MRAP.R.C", "setting": "single replicates", "result": "1.027 and 1.099 and 1.056"}, {"measurement": "RPPA level MSH2.R.C", "setting": "single replicates", "result": "0.981 and 0.975 and 0.839"}, {"measurement": "RPPA level MSH6.R.C", "setting": "single replicates", "result": "0.974 and 1.034 and 0.768"}, {"measurement": "RPPA level MSI2.R.C", "setting": "single replicates", "result": "1.007 and 0.996 and 1.009"}, {"measurement": "RPPA level MTCO1.M.V", "setting": "single replicates", "result": "1.026 and 0.959 and 0.846"}, {"measurement": "RPPA level MTSS1.M.C", "setting": "single replicates", "result": "0.922 and 1.002"}, {"measurement": "RPPA level Mcl.1.R.V", "setting": "single replicates", "result": "0.903 and 1.197 and 1.129"}, {"measurement": "RPPA level MelanA.R.C", "setting": "single replicates", "result": "0.929 and 1.064 and 1.083"}, {"measurement": "RPPA level Melanoma.gp100.R.C", "setting": "single replicates", "result": "0.903 and 1.116 and 1.163"}, {"measurement": "RPPA level Merlin.R.C", "setting": "single replicates", "result": "0.905 and 1.160 and 0.615"}, {"measurement": "RPPA level Midkine.R.V", "setting": "single replicates", "result": "1.000 and 0.968 and 1.034"}, {"measurement": "RPPA level Mitofusin.1.R.V", "setting": "single replicates", "result": "0.993 and 1.106 and 1.060"}, {"measurement": "RPPA level Mitofusin.2.R.V", "setting": "single replicates", "result": "0.878 and 0.979"}, {"measurement": "RPPA level Mnk1.R.V", "setting": "single replicates", "result": "1.011 and 1.102"}, {"measurement": "RPPA level mTOR.R.V", "setting": "single replicates", "result": "1.085 and 1.120 and 0.844"}, {"measurement": "RPPA level mTOR_pS2448.R.C", "setting": "single replicates", "result": "1.164 and 0.821"}, {"measurement": "RPPA p21.R.C", "setting": "single replicates", "result": "1.391 and 0.730 and 1.025"}, {"measurement": "RPPA p27.Kip1.R.C", "setting": "single replicates", "result": "1.014 and 0.921 and 0.908"}, {"measurement": "RPPA p27_pT157.R.C", "setting": "single replicates", "result": "0.998 and 1.050 and 0.780"}, {"measurement": "RPPA p27_pT198.R.V", "setting": "single replicates", "result": "0.905 and 1.281 and 1.122"}, {"measurement": "RPPA p38.MAPK.R.V", "setting": "single replicates", "result": "1.001 and 1.097"}, {"measurement": "RPPA p38.MAPK._pT180_Y182.R.V", "setting": "single replicates", "result": "0.866 and 2.597 and 1.276"}, {"measurement": "RPPA p38.a.M.V", "setting": "single replicates", "result": "1.063 and 0.940 and 0.948"}, {"measurement": "RPPA p44.42.MAPK.R.V", "setting": "single replicates", "result": "1.135 and 1.025 and 0.778"}, {"measurement": "RPPA p53.R.C", "setting": "single replicates", "result": "0.836 and 1.157 and 1.162"}, {"measurement": "RPPA p70.S6K1.R.V", "setting": "single replicates", "result": "1.053 and 0.972"}, {"measurement": "RPPA p70.S6K_pT389.R.V", "setting": "single replicates", "result": "0.923 and 1.455 and 1.050"}, {"measurement": "RPPA p90RSK_pT573.R.C", "setting": "single replicates", "result": "1.055 and 0.692"}, {"measurement": "RPPA DNMT1.R.V", "setting": "single samples", "result": "0.942 and 1.005"}, {"measurement": "RPPA DRP1.R.V", "setting": "single samples", "result": "1.048 and 0.924 and 1.058"}, {"measurement": "RPPA DUSP4.R.V", "setting": "single samples", "result": 1.207}, {"measurement": "RPPA DUSP6.R.C", "setting": "single samples", "result": 1.757}, {"measurement": "RPPA DYRK1B.R.C", "setting": "single samples", "result": "1.023 and 0.961 and 1.055"}, {"measurement": "RPPA Dvl3.R.V", "setting": "single samples", "result": "0.942 and 1.023 and 1.077"}, {"measurement": "RPPA E2F1.R.V", "setting": "single samples", "result": "0.971 and 1.007 and 0.906"}, {"measurement": "RPPA E.Cadherin.R.V", "setting": "single samples", "result": "0.967 and 0.935 and 0.968"}, {"measurement": "RPPA EGFR.R.V", "setting": "single samples", "result": "0.950 and 1.055 and 0.936"}]}]}
